Source: patent US20240240224A1, “FLUORESCENT D-TYPE AMINO ACID METABOLISM MARKER-BASED METHOD FOR DETECTING ANTIBACTERIAL DRUG SENSITIVITY TEST” (priority 2020, published 2024)
≈ marks a conversion by molar mass, not a printed value.

Key:
A. baumannii Ab19 = assay: FaAST (FDAA metabolic labeling); assay type: cell-based, Acinetobacter baumannii; details: unit assumed
Summary of the method: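 Bacteria diluted to OD600=0.05 in CAMHB were exposed to an antibiotic concentration series with Cy5-DAA probe […] for 2 h in the dark. Per-sample fluorescence was read by flow cytometry after PBS dilution. MIC was taken from the antibiotic concentration–fluorescence curve.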

S. aureus Sa22 = assay: BMD susceptibility test; assay type: cell-based, Staphylococcus aureus; details: unit assumed
P. aeruginosa Pa3 = assay: BMD susceptibility test; assay type: cell-based, Pseudomonas aeruginosa; details: unit assumed
E.coli 1113 [1] = assay: Vitek 2 drug sensitivity test; assay type: cell-based, Escherichia coli; as to Sensibility: key: S: Drug sensitive; R: Drug resistance
E.coli 1146 = assay: FDAA metabolic labeling susceptibility test (Cy5-DAA probe, flow cytometry); assay type: cell-based, Escherichia coli; details: Escherichia coli; E.coli 1146; Cy5-DAA probe, 2 hours; read-out: MIC, FDAA
E.coli 1113 [2] = assay: as above; assay type: cell-based, Escherichia coli; details: Escherichia coli; E.coli 1113; Cy5-DAA probe, 2 hours; read-out: MIC, FDAA
[3] = system: Pseudomonas aeruginosa PAE853; assay: FaAST with DAA-Cy5-2 probe; assay type: cell-based; details: unit assumed
Protocol: (§1) With reference to the flow chart of the rapid detection method of antimicrobial susceptibility test based on FDAA metabolic markers shown in FIG. 3, FDAA is used for the detection of antimicrobial susceptibility test of alveolar lavage fluid. The specific experimental steps are as follows: • 1. Mix bronchoalveolar lavage fluid (BALF, 10 ml) of patients with hospital acquired pneumonia with cation regulated broth medium (CAMHB, 10 ml) of twice the concentration to prepare the bacterial fluid to be tested. • 2. Add 45 μl antibiotic solutions of different concentrations to the 96-well plate separately (see Table 1 for antibiotic concentration gradient settings). • 3. Add 50 μl of the bacterial solution prepared in step 1 to the 96-well plate and mix well. • 4. Add 5 μl of 10 mM Cy5-DAA probe (final concentration 0.15 mM, see FIG. 1 for its structure) into each well, mix well, and then cultivate in dark for 2 hours. • 5. Add 200 μl PBS solution for dilution, and then use flow cytometry to detect the fluorescence intensity of each sample.
(§2) The specific steps are the same as in Example 5. […] The minimum inhibitory concentration of antibiotics was obtained according to the fluorescence signal intensity of flow detection, and the statistical results are shown in Table 7.

[4] = system: Acinetobacter baumannii ABA16; assay: FaAST with DAA-Cy5-2 probe; assay type: cell-based; details: unit assumed
Protocol: as §1, §2

A. baumannii Ab16 = assay: FaAST (FDAA metabolic labeling); assay type: cell-based, Acinetobacter baumannii; details: unit assumed
Summary of the method: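 Bacteria at OD600=0.05 in CAMHB mixed with antibiotic dilutions plus Cy5-DAA probe at 0.15 mM final, then incubated 2 h in the dark. Cell-wall labeling fluorescence measured by flow cytometry after PBS dilution.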

E. faecalis ATCC29212 = assay: BMD susceptibility test; assay type: cell-based, Enterococcus faecalis; details: unit assumed
[5] = system: Enterococcus faecium EFM26; assay: FaAST with DAA-Tetra probe; assay type: cell-based; details: unit assumed
[6] = system: Pseudomonas aeruginosa PAE2; assay: FaAST with DAA-Tetra probe; assay type: cell-based; details: unit assumed
[7] = system: Acinetobacter baumannii ABA19; assay: FaAST with DAA-Tetra probe; assay type: cell-based; details: unit assumed
Pa ATCC 27853 = assay: BMD susceptibility test; assay type: cell-based, Pseudomonas aeruginosa; details: unit assumed
[8] = system: Pseudomonas aeruginosa PAE853; assay: VITEK drug sensitivity test; assay type: cell-based; details: unit assumed
[9] = system: alveolar lavage fluid sample 0226, K. pneumoniae; assay: FaAST (FDAA) susceptibility test of patient alveolar lavage fluid; assay type: cell-based, Klebsiella pneumoniae; details: unit assumed
Protocol: as §1
(§3) The results of antimicrobial susceptibility test of alveolar lavage fluid of seven patients using FDAA and BMD methods are shown in the following table. The drug-resistant bacteria are shown in bold.

[10] = system: alveolar lavage fluid sample 0203, K. pneumoniae; assay: as above; assay type: cell-based, Klebsiella pneumoniae; details: unit assumed
Protocol: as §1, §3

S. aureus ATCC29213 = assay: BMD susceptibility test; assay type: cell-based, Staphylococcus aureus; details: unit assumed
K. pneumoniae Kp9 = assay: BMD susceptibility test; assay type: cell-based, Klebsiella pneumoniae; details: unit assumed

## C[C@H]1COc2c(N3CCN(C)CC3)c(F)cc3c(=O)c(C(=O)O)cn1c23 [Levofloxacin, levofloxacin]
A. baumannii Ab19
  FaAST (MIC): 0.5 µg/mL
S. aureus Sa22
  BMD (MIC): 32 µg/mL
P. aeruginosa Pa3
  BMD (MIC): 0.5 µg/mL
E.coli 1113 [1]
  MIC, Vitek 2: > 8 µg/mL
  Sensibility: R
E.coli 1146
  MIC: ≥ 16 µg/mL
E.coli 1113 [2]
  MIC: ≥ 16 µg/mL
[3]
  MIC, FaAST: 0.5 µg/mL (≈ 1.38 µM)
[4]
  MIC, FaAST: 32 µg/mL (≈ 88.6 µM)
A. baumannii Ab16
  FaAST (MIC): 32 µg/mL
E. faecalis ATCC29212
  BMD (MIC): 1 µg/mL
[5]
  MIC, FaAST: 64 µg/mL (≈ 177 µM)
[6]
  MIC, FaAST: 0.5 µg/mL (≈ 1.38 µM)
[7]
  MIC, FaAST: 0.5 µg/mL (≈ 1.38 µM)
Pa ATCC 27853
  BMD (MIC): 0.5 µg/mL
[8]
  MIC, VITEK: 0.5 µg/mL (≈ 1.38 µM)
[9]
  FaAST (MIC): 0.25 µg/mL
[10]
  FaAST (MIC): 0.25 µg/mL
S. aureus ATCC29213
  BMD (MIC): ≤ 0.25 µg/mL
K. pneumoniae Kp9
  BMD (MIC): 32 µg/mL
